Experiments:
[1] = tested on: Helicoverpa armigera larvae; assay: Glasshouse trial on geranium seedlings, racemic and isomeric C1 (Example 20); assay type: in vivo; conditions: Trial 1; 25 mM dose sprayed on geranium
[2] = tested on: Helicoverpa spp. larvae; assay: Field trial, commercial cotton crop, Kununurra (Example 19); assay type: in vivo, Helicoverpa armigera; conditions: C1 plus EDTA 1.0 kg/ha each

Structure (SMILES)	Estimated leaf damage (%) at 7 DAA [1] [%]	Mean number of larvae/leaf at 7 DAA [1]	Mean number TLVA*/10 Terminals, 3 DAA ([2]; 3 days after application, C1 2.0 kg/ha, EDTA 2.0 kg/ha)	efficacy against Helicoverpa spp. infesting cotton (in words) ([2]; EDTA alone 2.0 kg/ha)	Mean number TLVA*/10 Terminals, −1 DAA ([2]; pre-application count, C1 2.0 kg/ha, EDTA 2.0 kg/ha)
CC(C)[C@H](NCP(=O)(O)O)C(=O)O [D-C1, N-phosphonomethyl valine]	55	3.5			
CC(C)[C@H](NCP(=O)(O)O)C(=O)O [L-C1, N-phosphonomethyl valine]	35	2.3			
O=C(O)CN(CCN(CC(=O)O)CC(=O)O)CC(=O)O [EDTA, ethylenediaminetetraacetic acid]			6.0	no apparent influence on larval survival	0.0

Source: US7217831B2 (priority 2001, dated 2007)
